Values joined by “and” are separate entries in the source; they are usually repeats but may differ in a detail not shown here. Equal entries are not always repeated. Where two headings read alike, the source gives them in different places.
Tests used:
mouse liver mitochondria = assay: ADP-stimulated rotenone-sensitive OCR in isolated mouse liver mitochondria; assay type: biochemical; design: rotenone sensitive OCR after ADP stimulation, individual replicates / rotenone sensitive OCR after ADP stimulation, average: unit not given here; conditions: for rotenone sensitive OCR after ADP stimulation, % of control, average / rotenone sensitive OCR after ADP stimulation, average: average of replicates; for rotenone sensitive OCR after ADP stimulation, % of control, individual replicates / rotenone sensitive OCR after ADP stimulation, individual replicates: replicate 1-5
Protocol: (§1) Complex I and mitochondrial membranes were prepared from Bos taurus (bovine) heart. Intact mitochondria were isolated from rat liver and mouse heart and liver. Membranes were prepared from mouse heart mitochondria by 5 s bursts of sonication at 4 °C and collected by centrifugation (75,000 × g, 1 h).
Isolated mitochondria were monitored using a Seahorse XF96 extracellular flux analyzer at 32 °C. Mouse heart mitochondria, and mouse and rat liver mitochondria were plated into XF96 plates at 4 and 16–20 μg per well, respectively, in 220 mM mannitol, 70 mM sucrose, 10 mM KH2PO4, 5 mM MgCl2, 1 mM EGTA, 0.2 % fatty acid-free BSA, and 2 mM HEPES (pH 7.4 at 37 °C) with 10 mM glutamate and 10 mM malate and adhered by centrifugation (2000 × g, 20 min, 4 °C). The medium was supplemented with a further 5 mM glutamate and 5 mM malate and the mitochondria incubated for 15 min. Then two baseline readings were taken before the biguanides were added at IC50/5. Biguanides were allowed to accumulate for 15–20 min before respiration was […] by the addition of 4 mM ADP. Rotenone (2 μM) was added at the end of the experiment. Data from wells with failed port injections were excluded from the analyses. The RCR values (state III versus state IV respiration) were 3.4, 4.8, and 4.6 for mouse heart, rat liver, and mouse liver, respectively.

143B cells = assay: Rotenone-sensitive oxygen consumption rate in intact 143B cells; assay type: cell-based, human; conditions: for rotenone sensitive OCR after 6 hours of biguanide exposure, % control, average / rotenone sensitive OCR after 6 hours of biguanide exposure, average: 143B cells, biguanide at IC50/10; for rotenone sensitive OCR after 6 hours of biguanide exposure, average: OCR normalized to OCR immediately prior to biguanide addition; for inhibition of rotenone-sensitive respiration (in words): intact 143B cells, biguanide at IC50/10, monitored for 6 h
Protocol: 143B (CRL-8303 from ATCC), HepG2 (85011430 from The Health Protection Agency), and MDBK (CCL-22 from ATCC) cells were grown on Dulbecco’s modified Eagle’s medium (DMEM) supplemented with 10 % fetal bovine serum (FBS, Thermo Fisher Scientific) at 37 °C in 5 % CO2. All cells were confirmed as negative for mycoplasma.
Oxygen consumption rates (OCRs) were measured using a Seahorse XF96 extracellular flux analyzer at 37 °C. For intact cell measurements, 1.4 × 10^4 143B, HepG2, or MDBK cells were plated (per well) in DMEM containing 10 % FBS into Seahorse Bioscience Inc. XF96 plates and incubated for ~12 h at 37 °C in 5 % CO2. Then, the medium was exchanged for assay buffer containing DMEM, 4.5 g L^−1 glucose, 1 mM pyruvate, 32 mM NaCl, 2 mM GlutaMAX, 15 mg L^−1 phenol red, and 20 mM HEPES (pH 7.4 at 37 °C) and the cells placed in a CO2-free incubator at 37 °C for 30 min. Basal oxygen consumption rates were established before the addition of biguanides at one-tenth of their IC50 (IC50/10), and followed for ~ 6 h before the addition of rotenone (2 μM).
(§2) Rotenone-sensitive OCRs were calculated by subtracting the rotenone-insensitive rates (determined at the end of the experiment). OCRs were normalized by dividing by the OCR recorded immediately prior to the addition of biguanide. For rate of uptake calculations, the OCRs at time points after biguanide addition were divided by the OCRs at the same time points in control experiments. Data from wells with failed port injections were excluded from the analyses. The respiratory control ratio (RCR) values (state III versus state IV respiration) were ~11 and ~6 for permeabilized MDBK and 143B cells, respectively.

[1] = target: bovine heart mitochondrial membranes (complex I) (Bos taurus, UniProt P03887+P03898+P17694+P42026); assay: NADH:O2 oxidoreduction by bovine heart mitochondrial membranes (complexes I-III-IV); assay type: biochemical
Protocol: as §1
Assays were performed at 32 °C in a SpectraMax 96-well plate reader. NADH:decylubiquinone oxidoreduction by complex I at 0.5 μg mL^−1 was measured in 20 mM Tris-HCl (pH 7.2), 0.15 % soy bean asolectin (Avanti Polar Lipids), and 0.15 % 3-((3-cholamidopropyl)dimethylammonium)-1-propanesulfonate (CHAPS, Merck Chemicals Ltd), with 200 μM decylubiquinone and 200 μM NADH, and monitored using ε340–380(NADH) = 4.81 mM^−1 cm^−1 [23]. Catalysis was initiated by addition of NADH and maximal rates determined by linear regression. NADH:O2 oxidoreduction by membranes was measured similarly but using 5 μg mL^−1 membranes in 10 mM Tris-HCl (pH 7.4) and 250 mM sucrose using 200 μM NADH and supplemented with 0.15 mM horse heart cytochrome c (Sigma-Aldrich Ltd.). Succinate:O2 oxidoreduction was measured using 40 μg mL^−1 membranes in 5 mM succinate in 10 mM Tris-HCl (pH 7.4) as described previously. Control experiments included NaCl (to match the ionic strength) or DMSO, as appropriate.
Experimental values are reported as mean averages ± standard deviation (SD) of technical replicates for large sample sizes and mean averages ± standard error of the mean (SEM) of technical replicates for small sample sizes. Data were analyzed by the unpaired two-tailed Student’s t test. IC50 values were determined using the standard dose-effect relationship (activity (%) = 100 × IC50 / (IC50 + [inhibitor]^m) with the Hill Slope (m) set to unity for purified complex I) and are reported with 95 % confidence intervals.

permeabilized MDBK cells = assay: ADP-stimulated rotenone-sensitive OCR in permeabilized MDBK cells; assay type: cell-based, Bos taurus; design: rotenone sensitive OCR after ADP stimulation, average / rotenone sensitive OCR after ADP stimulation: unit not given here; conditions: MDBK permeabilised cells; for rotenone sensitive OCR after ADP stimulation, % of control, average / rotenone sensitive OCR after ADP stimulation, average: average of replicates; for rotenone sensitive OCR after ADP stimulation / rotenone sensitive OCR after ADP stimulation, % of control: individual replicates
Protocol: For permeabilized cell experiments, cells were seeded into XF96 plates at 0.9–1.1 × 10^4 per well and incubated for 48 h at 37 °C in 5 % CO2. Then, the growth medium was exchanged for assay buffer containing 3 nM plasma membrane permeabilizer ‘PMP’ (Seahorse Biosciences Inc.), 10 mM glutamate, 10 mM malate, 220 mM mannitol, 70 mM sucrose, 10 mM KH2PO4, 5 mM MgCl2, 1 mM EGTA, 0.2 % fatty acid-free bovine serum albumin (BSA), and 2 mM HEPES (pH 7.4 at 37 °C). […] The biguanides were allowed to accumulate for 30 min, then respiration was […] by the addition of 4 mM ADP. Rotenone was added (2 μM) at the end of the experiment.
as §2

[2] = log of concentration in mM; sample given as Bovine heart mitochondrial membranes; Prism variable slope fit, Bottom 0, Top 100
[3] = sample given as Bovine heart mitochondrial membranes; Prism variable slope fit, Bottom 0, Top 100

Chain of bovine heart mitochondrial membranes (complex I) (P42026 38-216): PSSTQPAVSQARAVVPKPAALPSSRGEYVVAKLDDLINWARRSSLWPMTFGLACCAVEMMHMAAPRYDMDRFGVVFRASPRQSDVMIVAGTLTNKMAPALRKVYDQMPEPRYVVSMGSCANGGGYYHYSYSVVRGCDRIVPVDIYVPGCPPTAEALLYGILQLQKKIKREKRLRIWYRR
Chain of bovine heart mitochondrial membranes (complex I) (P17694 34-463): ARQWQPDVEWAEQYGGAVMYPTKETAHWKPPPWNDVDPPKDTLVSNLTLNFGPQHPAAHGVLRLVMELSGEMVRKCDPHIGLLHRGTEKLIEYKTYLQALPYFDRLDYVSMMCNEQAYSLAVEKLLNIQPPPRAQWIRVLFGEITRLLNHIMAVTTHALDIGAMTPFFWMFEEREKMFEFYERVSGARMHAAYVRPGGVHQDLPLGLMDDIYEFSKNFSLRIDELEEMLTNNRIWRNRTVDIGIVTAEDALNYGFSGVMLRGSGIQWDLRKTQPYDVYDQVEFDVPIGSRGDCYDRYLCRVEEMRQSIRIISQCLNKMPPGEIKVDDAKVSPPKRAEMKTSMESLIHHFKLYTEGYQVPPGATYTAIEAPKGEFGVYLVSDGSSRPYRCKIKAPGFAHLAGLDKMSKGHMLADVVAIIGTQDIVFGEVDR
Chain of bovine heart mitochondrial membranes (complex I) (P03887 whole entry): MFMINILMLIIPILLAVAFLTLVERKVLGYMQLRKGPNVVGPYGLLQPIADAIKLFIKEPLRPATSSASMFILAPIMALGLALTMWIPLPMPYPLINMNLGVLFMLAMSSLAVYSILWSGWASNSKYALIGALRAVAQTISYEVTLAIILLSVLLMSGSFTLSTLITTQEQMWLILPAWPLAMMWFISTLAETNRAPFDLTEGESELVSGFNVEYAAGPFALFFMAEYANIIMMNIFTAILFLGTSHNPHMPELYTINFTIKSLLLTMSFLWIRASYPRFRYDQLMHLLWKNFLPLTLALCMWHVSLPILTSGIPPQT
Chain of bovine heart mitochondrial membranes (complex I) (P03898 whole entry): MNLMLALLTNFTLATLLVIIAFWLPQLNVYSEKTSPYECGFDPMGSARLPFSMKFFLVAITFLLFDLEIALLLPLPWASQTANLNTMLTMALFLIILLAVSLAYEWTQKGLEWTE

| SMILES | rotenone sensitive OCR after ADP stimulation, % of control, average (mouse liver mitochondria) | rotenone sensitive OCR after ADP stimulation, average (mouse liver mitochondria) | rotenone sensitive OCR after ADP stimulation, % of control, individual replicates (mouse liver mitochondria) | rotenone sensitive OCR after ADP stimulation, individual replicates (mouse liver mitochondria) | rotenone sensitive OCR after 6 hours of biguanide exposure, % control, average (143B cells) | rotenone sensitive OCR after 6 hours of biguanide exposure, average (143B cells) | inhibition of rotenone-sensitive respiration (in words) (143B cells) | LogIC50 (best fit value) [1, 2] | HillSlope (best fit value) [1, 3] | rotenone sensitive OCR after ADP stimulation, % of control, average (permeabilized MDBK cells) | rotenone sensitive OCR after ADP stimulation, average (permeabilized MDBK cells) | rotenone sensitive OCR after ADP stimulation, % of control, average (permeabilized MDBK cells; biguanide at IC50/5) | rotenone sensitive OCR after ADP stimulation, average (permeabilized MDBK cells; biguanide at IC50/5) | rotenone sensitive OCR after ADP stimulation (permeabilized MDBK cells; biguanide at IC50/5) | rotenone sensitive OCR after ADP stimulation, % of control (permeabilized MDBK cells; biguanide at IC50/5) | further results |
| --- | --- | --- | --- | --- | --- | --- | --- | --- | --- | --- | --- | --- | --- | --- | --- | --- |
| NC(N)=NC(N)=NCCc1ccc(Cl)cc1 [compound 1, 2-[2-(4-chlorophenyl)ethyl]-1-(diaminomethylidene)guanidine] | 43.22 % of control | 14.99 | 45.82 % of control and 40.66 % of control and 43.16 % of control | 15.90 and 14.11 and 14.98 | 3.06 % control | 3.59 | inhibit respiration | -0.4001 | -0.6555 | 20.60 % of control | 58.06 | 20.60 % of control | 58.06 | 88.38 and 76.77 and 21.79 and 44.14 and 38.29 and 53.63 and 83.42 | 31.36 % of control and 27.24 % of control and 7.73 % of control and 15.66 % of control and 13.59 % of control and 19.03 % of control and 29.60 % of control | remaining activity at 25 µM ([1]; bovine heart mitochondrial membranes; inhibitor 0.025 mM; read-out: average % (rate, % of no-inhibitor control)): 91.4%; remaining activity at 50 µM ([1]; bovine heart mitochondrial membranes; inhibitor 0.05 mM; read-out: average % (rate, % of no-inhibitor control)): 77.5%; remaining activity at 120 µM ([1]; bovine heart mitochondrial membranes; inhibitor 0.12 mM; read-out: average % (rate, % of no-inhibitor control)): 66.8%; remaining activity at 250 µM ([1]; bovine heart mitochondrial membranes; inhibitor 0.25 mM; read-out: average % (rate, % of no-inhibitor control)): 57.4%; remaining activity at 500 µM ([1]; bovine heart mitochondrial membranes; inhibitor 0.50 mM; read-out: average % (rate, % of no-inhibitor control)): 44.1%; remaining activity at 1000 µM ([1]; bovine heart mitochondrial membranes; inhibitor 1.00 mM; read-out: average % (rate, % of no-inhibitor control)): 35.1%; remaining activity at 2000 µM ([1]; bovine heart mitochondrial membranes; inhibitor 2.00 mM; read-out: average % (rate, % of no-inhibitor control)): 28.9%; IC50 ([1]; sample given as Bovine heart mitochondrial membranes; Prism log(inhibitor) vs. response variable slope fit (four parameters), Bottom 0, Top 100; read-out: IC50 (best fit value)): 398 µM |
| N=C(N)NC(N)=Nc1ccccc1 [compound 2, phenyl biguanide] | 78.67 % of control | 27.30 | 80.64 % of control and 78.05 % of control and 77.34 % of control | 27.98 and 27.08 and 26.83 | 98.12 % control | 115.02 | do not | -0.3757 | -0.7595 | 101.81 % of control | 286.92 | 101.81 % of control | 286.92 | 411.58 and 226.55 and 268.24 and 253.43 and 274.79 | 146.05 % of control and 80.39 % of control and 95.18 % of control and 89.93 % of control and 97.51 % of control | IC50 ([1]; read-out: IC50 (best fit value); sample given as Bovine heart mitochondrial membranes; Prism log(inhibitor) vs. response variable slope fit (four parameters), Bottom 0, Top 100): 421 µM |
| [H]/N=C(/N)N/C(=N/[H])NCCc1ccccc1 [phenformin, reference compound] | 29.95 % of control | 10.39 | 29.69 % of control and 34.49 % of control and 19.77 % of control and 35.85 % of control | 10.30 and 11.97 and 6.86 and 12.44 | 9.47 % control | 11.10 | – | – | – | 14.11 % of control | 39.76 | 14.11 % of control | 39.76 | 45.64 and 68.90 and 0.07 and 37.54 and 39.83 and 25.16 and 62.96 and 38.03 | 16.19 % of control and 24.45 % of control and 0.025 % of control and 13.32 % of control and 14.13 % of control and 8.93 % of control and 22.34 % of control and 13.49 % of control | – |

From article PMC4977651, “Molecular features of biguanides required for targeting of mitochondrial respiratory complex I and activation of AMP-kinase” (BMC Biology, 2016)
